# Marks after values point to notes of the source that are not given here.
# Tests used:
# [1] = test system: spontaneously hypertensive stroke-prone rats (SHR-SP/Izm); assay: Urine metabolite analysis by NMR (Example 3); assay type: in vivo, rat; settings: for Urine metabolic concentration: 4-Hydroxyphenylacetate / Urine metabolic concentration: Glycine / Urine metabolic concentration: N-Phenylacetylglycine / Urine metabolic concentration: Creatinine: Example 3, H-DHA-TG 2,000, DHA-EE 1,303, Tri-DHA-TG 1,246 mg/kg, 4 weeks; for Urine metabolic concentration: Creatinine: normaliser
# Description: (§1) Spontaneously hypertensive stroke-prone rats (SHR-SP/Izm, Nihon SLC Co., Ltd.) aged 4 weeks were acclimatized for 1 week, then fed an 8-mass % salt-containing solid diet (AlN-93G) and a drinking water freely, and once a day, DHA highly enriched triglycerides (H-DHA-TG), esters (DHA-EE) used in Example 2, and triglycerides (Tri-DHA-TG) prepared in Example 2 were administered by gavage with the amounts shown in Table 3,
# (§2) In addition, urine samples were collected before the start of administration and after 4 weeks of administration under fasting for 16 hours, and biochemical tests and metabolite analysis by NMR were performed by conventional methods.
# [2] = test system: salt-sensitive spontaneously hypertensive stroke-prone rats; settings: Non-Patent Documents 1 and 2; cited from earlier work
# [3] = test system: spontaneously hypertensive stroke-prone rats (SHR-SP/Izm); assay: Kidney pathology scores GSI and AIS (Example 3); assay type: in vivo, rat; settings: H-DHA-TG 2,000, DHA-EE 1,303, Tri-DHA-TG 1,246 mg/kg once a day gavage, 4 weeks, group average
# Description: as §1
# The kidneys were fixed in formalin solution, and then each staining was performed by PAS-staining, Sirius-Red-staining, and immunostaining for α-SMA, CD68, Desmin, and Kim−1 for pathological observations.
# For PAS-staining, along with pathomorphological observations, glomerulosclerosis score (GSI), renal artery injury score (AIS) were performed with reference to Clinical and Experimental Hypertension, 2012, 34 (2) 99-106.
# [4] = test system: spontaneously hypertensive stroke-prone rats (SHR-SP/Izm); assay: Serum and urine biochemical tests, comparison of DHA-bound TG and EE (Example 3); assay type: in vivo, rat; settings: H-DHA-TG 2,000, DHA-EE 1,303, Tri-DHA-TG 1,246 mg/kg once a day gavage, 4 weeks; for Urine Alb / Urine Alb/CRE / Urine TP: median
# Description: as §1, §2
# At the end of the test, blood was collected from the abdominal vena cava and necropsied.
# Biochemical metabolite analysis was performed on the obtained serum by conventional methods.
# [5] = test system: diabetic disease model animals; settings: Non-Patent Document 4; cited from earlier work
Compound,Urine metabolic concentration: 4-Hydroxyphenylacetate [1],Urine metabolic concentration: Glycine [1],Urine metabolic concentration: N-Phenylacetylglycine [1],Urine metabolic concentration: Creatinine [1],Renal function protection [2],AIS (renal artery injury score) [3],GSI (glomerulosclerosis score) [3],Serum BUN [4],Serum CRE [4],Urine CRE [4],Urine Alb [4],Urine Alb/CRE [4],Urine TP [4],Blood glucose levels [5],"Significant differences of urine metabolites vs control, triglycerides compared with esters ([1]; Example 3, Table 6)"
"CC/C=C\C/C=C\C/C=C\C/C=C\C/C=C\C/C=C\CCC(=O)OCC [DHA-EE, ethyl esters of docosahexaenoic acid]",0.09 ± 0.03 (μM)/Cre(μM),0.18 ± 0.04 (μM)/Cre(μM),0.34 ± 0.09 (μM)/Cre(μM),1.00 ± 0.00 (μM)/Cre(μM),renal function was protected,19.4,7.1,25.1 ± 3.7 mg/dL,0.28 ± 0.04 mg/dL,3.23 ± 0.59 mg/16 h,1054 ug/16 h,4.44^†,3.2 mg/16 h,lowered blood glucose levels to the same extent as control,–
"CC/C=C\C/C=C\C/C=C\C/C=C\C/C=C\CCCC(=O)OCC [EPA-EE, ethyl esters of eicosapentaenoic acid]",–,–,–,–,renal function was protected,–,–,–,–,–,–,–,–,no effect was observed,–
"CC/C=C\C/C=C\C/C=C\C/C=C\C/C=C\C/C=C\CCC(=O)OCC(COC(=O)CC/C=C\C/C=C\C/C=C\C/C=C\C/C=C\C/C=C\CC)OC(=O)CC/C=C\C/C=C\C/C=C\C/C=C\C/C=C\C/C=C\CC [Tri-DHA-TG, tridocosahexaenoyl triglyceride]",0.12 ± 0.04 (μM)/Cre(μM),0.19 ± 0.03 (μM)/Cre(μM),0.42 ± 0.08 (μM)/Cre(μM),1.00 ± 0.00 (μM)/Cre(μM),–,21.1,11.4,25.1 ± 4.2 mg/dL,0.28 ± 0.06 mg/dL,3.02 ± 0.47 mg/16 h,544.95^† ug/16 h,1.85^†,3.2^† mg/16 h,–,more significant differences
triglycerides of DHA [DHA-TAG],–,–,–,–,–,–,–,–,–,–,–,–,–,lowered blood glucose levels to the same extent as control,–
triglycerides of EPA [EPA-TAG],–,–,–,–,–,–,–,–,–,–,–,–,–,no effect was observed,–
